For orientation: IC50 means the concentration needed to halve the response being measured. A high value points to weaker potency in that assay.

For one assay, the target named is PIK3CA (human) (UniProt P42336). Description: Assessment of PIK3CA Kinase Activity.
For a further assay, the target named is PIK3CG (human) (UniProt P48736). Description: Assessment of PIK3CG Kinase Activity.
PIK3CG (human), sequence (P48736 whole entry, looked up): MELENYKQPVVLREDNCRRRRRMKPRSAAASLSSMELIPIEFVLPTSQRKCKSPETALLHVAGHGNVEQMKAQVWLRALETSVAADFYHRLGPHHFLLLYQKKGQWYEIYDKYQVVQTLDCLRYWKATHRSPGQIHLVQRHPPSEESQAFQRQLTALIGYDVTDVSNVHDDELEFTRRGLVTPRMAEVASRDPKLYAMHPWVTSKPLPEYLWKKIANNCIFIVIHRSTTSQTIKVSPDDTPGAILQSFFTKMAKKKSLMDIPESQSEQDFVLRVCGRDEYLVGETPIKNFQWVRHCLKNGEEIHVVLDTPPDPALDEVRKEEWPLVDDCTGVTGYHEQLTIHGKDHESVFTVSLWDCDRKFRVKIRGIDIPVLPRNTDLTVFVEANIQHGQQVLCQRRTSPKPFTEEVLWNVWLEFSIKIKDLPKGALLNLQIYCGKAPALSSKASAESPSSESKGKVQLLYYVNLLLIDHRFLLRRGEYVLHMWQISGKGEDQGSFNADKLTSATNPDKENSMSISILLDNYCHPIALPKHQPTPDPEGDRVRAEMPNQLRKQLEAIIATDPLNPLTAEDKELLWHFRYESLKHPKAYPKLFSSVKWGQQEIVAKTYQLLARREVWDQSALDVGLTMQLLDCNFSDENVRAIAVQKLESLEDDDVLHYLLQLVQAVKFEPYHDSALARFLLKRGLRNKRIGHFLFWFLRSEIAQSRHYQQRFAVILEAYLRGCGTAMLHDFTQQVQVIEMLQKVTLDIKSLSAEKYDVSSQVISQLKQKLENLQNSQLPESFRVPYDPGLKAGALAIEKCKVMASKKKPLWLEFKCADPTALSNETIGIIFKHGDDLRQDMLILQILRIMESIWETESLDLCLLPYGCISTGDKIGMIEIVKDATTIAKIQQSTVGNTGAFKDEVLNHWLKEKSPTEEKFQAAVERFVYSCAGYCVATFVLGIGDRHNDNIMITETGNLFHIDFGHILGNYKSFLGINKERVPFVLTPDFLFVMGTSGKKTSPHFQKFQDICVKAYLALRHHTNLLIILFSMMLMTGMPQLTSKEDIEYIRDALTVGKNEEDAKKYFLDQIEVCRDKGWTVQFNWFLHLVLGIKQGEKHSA

PIK3CA (human), sequence (P42336 whole entry, looked up): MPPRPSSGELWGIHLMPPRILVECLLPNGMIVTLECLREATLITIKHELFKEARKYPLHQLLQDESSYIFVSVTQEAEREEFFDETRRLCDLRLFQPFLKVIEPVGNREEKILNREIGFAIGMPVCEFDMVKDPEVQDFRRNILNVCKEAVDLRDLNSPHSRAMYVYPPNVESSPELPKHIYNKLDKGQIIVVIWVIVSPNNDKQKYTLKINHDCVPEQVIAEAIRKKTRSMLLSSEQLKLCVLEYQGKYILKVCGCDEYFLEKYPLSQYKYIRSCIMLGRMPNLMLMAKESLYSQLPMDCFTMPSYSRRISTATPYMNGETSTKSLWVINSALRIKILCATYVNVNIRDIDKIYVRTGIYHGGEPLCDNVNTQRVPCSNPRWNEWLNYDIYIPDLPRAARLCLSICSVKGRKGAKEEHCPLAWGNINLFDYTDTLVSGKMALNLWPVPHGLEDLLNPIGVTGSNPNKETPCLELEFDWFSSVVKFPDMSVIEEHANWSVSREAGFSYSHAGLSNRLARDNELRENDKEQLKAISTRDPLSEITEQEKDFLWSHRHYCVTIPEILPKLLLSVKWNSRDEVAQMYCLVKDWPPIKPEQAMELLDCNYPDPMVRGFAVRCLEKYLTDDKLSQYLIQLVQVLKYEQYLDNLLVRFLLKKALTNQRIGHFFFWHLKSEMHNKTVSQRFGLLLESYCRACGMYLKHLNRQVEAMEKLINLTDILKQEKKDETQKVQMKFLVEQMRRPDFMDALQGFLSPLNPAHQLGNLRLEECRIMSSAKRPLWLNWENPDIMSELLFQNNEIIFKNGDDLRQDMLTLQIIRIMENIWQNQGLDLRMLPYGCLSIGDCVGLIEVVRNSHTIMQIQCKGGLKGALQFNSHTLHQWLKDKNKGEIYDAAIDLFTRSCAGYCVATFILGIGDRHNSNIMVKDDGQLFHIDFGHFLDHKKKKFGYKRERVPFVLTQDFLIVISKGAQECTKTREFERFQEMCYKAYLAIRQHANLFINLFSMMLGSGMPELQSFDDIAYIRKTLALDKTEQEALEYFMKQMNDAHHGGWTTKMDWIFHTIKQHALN

In the case of `CCn1ncc2c(N3CC4CCC(C3)O4)nc(-c3ccc(NC(=O)NC(=O)CCNCCN(C)C)cc3)nc21`, the IC50 against PIK3CA (human) was 1.83 µM; against PIK3CG (human), 8.11 µM.

On to `CN(C)CC(=O)Nc1ccc(NC(=O)Nc2ccc(-c3nc(N4CC5CCC(C4)O5)c4cnn(C)c4n3)cc2)cc1`, for which the IC50 at PIK3CA (human) worked out at 0.346 µM; on PIK3CG (human), 1.41 µM.

At PIK3CG (human), `O=C(Nc1ccc(-c2nc(N3CC4CCC(C3)O4)c3sccc3n2)cc1)NC1CC1` had an IC50 of 10 µM.

As to `CC(=O)Nc1ccc(NC(=O)Nc2ccc(-c3nc(N4CC5CCC(C4)O5)c4cnn(C)c4n3)cc2)cc1`, the IC50 at PIK3CA (human) stood at 1.05 µM; on PIK3CG (human), 2.72 µM.

At PIK3CG (human), `COC1CCC(n2ncc3c(N4CC5CCC(C4)O5)nc(-c4ccc(NC(=O)Nc5ccncc5)cc4)nc32)CC1` (stereo not given) registered an IC50 of 0.825 µM.

With `O=C(Nc1ccc(-c2nc(N3CC4CCC(C3)O4)c3cnn([C@H]4CC[C@]5(CCCO5)CC4)c3n2)cc1)Nc1ccc(N2CCNCC2)cc1`, the IC50 at PIK3CG (human) was 2.02 µM.

Molecule `O=C(Nc1ccncc1)Nc1ccc(-c2nc(N3CC4CCC(C3)O4)c3cnn([C@H]4CC[C@]5(CCCO5)CC4)c3n2)cc1` had a concentration for half-maximal inhibition (IC50) against PIK3CG (human) of 2.22 µM.

On to `O=C(Nc1ccc(-c2nc(N3CC4CCC(C3)O4)c3cnn([C@H]4CC[C@]5(CCCO5)CC4)c3n2)cc1)OCCO`, for which the IC50 at PIK3CG (human) is 2.06 µM. This IC50 and that of the molecule before are within 1.5-fold of each other.

`O=C(NCCO)Nc1ccc(-c2nc(N3CC4CCC(C3)O4)c3sccc3n2)cc1` registered a half-maximal inhibitory concentration (IC50) against PIK3CG (human) of 10 µM.

Turning to `CN1CCN(c2ccc(NC(=O)Nc3ccc(-c4nc(N5CC6CCC(C5)O6)c5cnn([C@H]6CC[C@]7(CCCO7)CC6)c5n4)cc3)cc2)CC1`, at PIK3CG (human), the half-inhibitory concentration (IC50) worked out at 1.45 µM.

For `CCn1ncc2c(N3CC4CCC(C3)O4)nc(-c3ccc(NC(=O)NC(=O)CNCCN(C)C)cc3)nc21`, the results for the concentration for half-maximal inhibition (IC50) against PIK3CA (human) and against PIK3CG (human) were 0.311 µM and 0.494 µM, respectively.

The record behind these values is the Kinase Knowledgebase extract (Sharma et al. 2016).
